Source: US20040122209A1, “Products for regulating the degradation of collagen and methods for identifying same” (Shriners Hospital For Children, priority 2002, published 2004)
No end group written: not given here.

Assays:
Format in all cases: cell-based
ERK1/2 = test: Western immunoblot for phosphorylated ERK1/2 in human chondrocytes; conditions: at 15 min; inhibitors added before peptide
Method: To detect activation of MAP kinases (ERK1/2, p38 MAPK, and JNK1/2), first-passaged chondrocytes plated onto 10-cm culture dishes were incubated with CB12-II (SP), USP, TNF-α, native human type II collagen, human fibronectin, and antibodies to α2β1 and α5β1 for 5-60 min. In some experiments, chondrocytes were precultured with U0126 (inhibitor of phosphorylation of MEK1/2, up-stream kinase molecule of ERK1/2) at 1 μM for 1 h, SB203580 (inhibitor of phosphorylation of p38 MAPK) at 1 μM for 1 h, Herbimycin A (tyrosine kinase inhibitor) at 1 μg/ml for overnight, Wortmannin (PI3 kinase inhibitor) at 100 nM for 1 h, and Cytochalasin D (focal adhesion inhibitor) at 3 μM for 30 or 60 min before adding peptides.
After a variable but designated incubation time, chondrocytes were washed twice with ice cold PBS and lysed in RIPA buffer (10 mM Tris/HCl, pH 7.4, 0.1% SDS, 1% NP-40, 0.1% sodium deoxycholate, 150 mM NaCl, 1 mM EDTA) containing freshly added proteinase and phosphatase inhibitors (1 mM PMSF, 10 μg/ml leupeptin, 1 μg/ml aprotinin, 1 mM Na3VO4, 1 mM NaF). Cell lysate was centrifuged and supernatant was collected. Protein concentration was determined using Bradford's method. Equal amounts of protein were separated on 10% SDS-polyacrylamide gels under reducing conditions and were electrotransferred to a nitrocellulose membrane (Bio-Rad). To block nonspecific binding, the membranes were incubated in PBS containing 5% non-fat milk overnight at 4° C. The membranes were then probed with rabbit antibodies against phosphorylated ERK1/2, p38, and JNK1/2 (New England BioLabs). Antibodies were diluted 1:1000 in PBS containing 0.5% non-fat milk and reacted with the membrane for 1 h at room temperature. Blots were washed with PBS containing 0.1% Tween-20 three times, and incubated for 1 h at room temperature with horseradish peroxidase (HRP)-conjugated goat anti-rabbit IgG (New England BioLabs) diluted 1:2000 with PBS-0.1% Tween 20 for ECL system (Amersham). Then, the membranes were washed with PBS-Tween, and the membranes were detected with the addition of a 1:1 dilution of the ECL detection reagents (Amersham) 1 and 2 for 1 min. The solution was removed, and the membranes were wrapped in plastic wrap and exposed to film for various amounts of time.
First-passaged confluent human chondrocytes were treated with CB12-II (SP) (10 μM), USP (10 μM), anti-α2β1and α5β1 antibodies, anti-integrin α2β1 blocking antibody, and IL-1β or TNF-α. Cell lysates were immunoblotted using antibody that detects phosphorylated p-ERK1I/2 or p-MEK. In some experiments, U0126 at 10 μM, a specific inhibitor of an upstream molecule, MEK1/2, that activates ERK1/2, and SB203580 at 10 μM, that inhibits p38 MAPK activity, were added to the culture 1 h before peptides, antibodies, and cytokines. Herbimycin A, cytochalasin D, and wortmannin were also used as inhibitors.

[1] = test system: bovine articular cartilage explant; test: Proteoglycan (GAG) content and release in bovine explant culture; conditions: subpeptides at 1 and 10 μM
Method: The cartilages were prepared as previously described (Dahlberg, L. et al. (2000) supra. In brief, the cartilage samples were washed three times with basal culture medium containing Dulbecco's modified Eagle's medium (DMEM; Gibco BRL, Life Technologies, Grand Island, N.Y.) with 20 mM HEAPS buffer (pH 7.4) (Gibco BRL), 45 mM NaHCO3, 100 units/ml penicillin, 100 μg/ml streptomycin and 150 μg/ml gentamycin sulphate (Medium A). Full-depth cartilage slices from a single area, around 20 mm×20 mm were cut vertical to the articular surface and then into cubes of approximately 2 mm×2 mm (5-7 cubes were randomly obtained and wet weights about 50-70 mg/well determined). The cartilage was assigned to 48 well plate (ca 40 mg/well) and kept in Medium A supplemented with 50 μg/ml ascorbic acid, 0.1 mg/bovine serum albumin, 50 μg/ml insulin, 5.0 μg/ml and 5.0 μg/ml sodium DMEM alone at 37° C. in 95% air/5% CO2. The cartilage was precultured for 2 days and medium was changed at day 0. Thereafter medium (as described in pellet cultures) was replaced every four days. Various CNBr fragments and/or synthetic peptides were freshly added from day 0 at each medium change. Thereafter, cartilage explants and conditioned media were harvested and stored at −20° C. In order to show the specificity of the peptide fragments of one embodiment on degradation of type II collagen as compared with proteoglycan, primarily aggrecan, sulphated glycosaminoglycan (GAG) content was determined in both the α-chymotrypsin and proteinase K digests for total proteoglycan (predominantly aggrecan) content in cell pellets, cartilage explants and also in conditioned media. Measurement of release of proteoglycan into media was tested using dimethylene blue dye binding as previously described (Dahlberg, L. et al. (2000) supra).

[2] = test system: bovine articular cartilage explant; test: Collagenase-cleaved type II collagen (COL2-3/4C) in bovine articular cartilage explant culture; conditions: 1 and 10 μM, time- and dose-dependent
Method: (§1) The cartilages were prepared as previously described (Dahlberg, L. et al. (2000) supra. In brief, the cartilage samples were washed three times with basal culture medium containing Dulbecco's modified Eagle's medium (DMEM; Gibco BRL, Life Technologies, Grand Island, N.Y.) with 20 mM HEAPS buffer (pH 7.4) (Gibco BRL), 45 mM NaHCO3, 100 units/ml penicillin, 100 μg/ml streptomycin and 150 μg/ml gentamycin sulphate (Medium A). Full-depth cartilage slices from a single area, around 20 mm×20 mm were cut vertical to the articular surface and then into cubes of approximately 2 mm×2 mm (5-7 cubes were randomly obtained and wet weights about 50-70 mg/well determined).
(§2) The cartilage was assigned to 48 well plate (ca 40 mg/well) and kept in Medium A supplemented with 50 μg/ml ascorbic acid, 0.1 mg/bovine serum albumin, 50 μg/ml insulin, 5.0 μg/ml and 5.0 μg/ml sodium DMEM alone at 37° C. in 95% air/5% CO2. The cartilage was precultured for 2 days and medium was changed at day 0. Thereafter medium (as described in pellet cultures) was replaced every four days. Various CNBr fragments and/or synthetic peptides were freshly added from day 0 at each medium change. Thereafter, cartilage explants and conditioned media were harvested and stored at −20° C.
(§3) The cell pellets and cartilage explant cultured for various times were digested for the extraction of collagenase-generated neoepitope COL2-3/4Cshort (Billinghurst, R. C. et al., (1997) supra) and denatured type II collagen epitope COL2-3/4m and total type II collagen (Hollander, A. P. et al. (1994a) supra), as previously described: Briefly, the harvested pellets were incubated overnight with 1.0 mg/ml α-chymotrypsin at 37° C. to cleave and solubilize denatured collagen leaving the above neoepitope and epitope intact. After inhibition of α-chymotrypsin activity with N-tosyl-L-phenelalanine-chloromethyl ketone (Sigma), the samples were centrifuged and the supernatants were removed and boiled for 10 min. The COL2-3/4Cshort epitope (hereafter referred to as COL2-3/4Cshort) generated by cleavage of type II collagen by collagenase (Billinghurst, R. C. et al. (1997) supra) and intrachain epitope (COL2-3/4m) exposed in denatured type II collagen (Hollander, A. P. et al. (1994a) supra) were measured in α-chymotrypsin extracts by immunoassay. The COL2-3/4Cshort epitope is detected in an ELISA assay using a rabbit antibody to the carboxyterminal cleavage neoepitope on the TCA piece generated by primary collagenase cleavage of type II collagen. The release of the COL2-3/4C epitope into media was also measured by immunoassay. Total contents in tissue/cells and media was recorded for COL2-3/^4Cshort epitope. The COL2-3/4m epitope was recorded in cells and tissue where it was concentrated. The remaining residues of pellets and explants were digested overnight with 1.0 mg/ml proteinase K at 56° C. to extract the remaining intact type II collagen and then boiled for 10 min to denature the enzyme. Total type II collagen content in the pellets and explant was determined from the collective amount of COL2-3/4m in both the α-chymotrypsin and proteinase K digests.

[3] = test system: normal human adult articular cartilage explants; test: Type II collagen cleavage by collagenase (COL2-3/4C) in human articular cartilage explant culture; conditions: by day 16
Method: Human femoral chondylar cartilages were obtained at autopsy within 18 hours of death from adult persons with no known history of arthritis and no macroscopic signs of articular degeneration. None of the persons had diabetes or had received chemotherapy prior to autopsy. Adult bovine articular cartilage was obtained from adults/bovine steers and cows from metacarpalphalangeal joints obtained at the abbatoir immediately after slaughter. All cartilage specimens were removed immediately to the laboratory under sterile conditions.
as §1, §2, §3

MMP-13 = test: ELISA for MMP-13 in conditioned medium of human chondrocytes; conditions: 48 hours; CB12-II 50 μM, TNF-α 50 ng/ml
Method: (§4) First-passaged normal human chondrocytes isolated by the method described above and cultured at high density (2×10^5 cells/cm^2) were trypsinized and resuspended in Medium A containing 1% FCS at a density of 10^6 cells/ml. Then, 200 μl of the cell suspension was each plated onto round-bottomed 96-well culture plate. On the next day after plating, CB12-II at 50 μM, USP at 50 μM, and TNF-α at 50 ng/ml were added to the culture media, and the culture was maintained for 24-48 hours. Conditioned media were collected and subjected to ELISA assay. The ELISA kits (BIOTRAK) for MMP-1 and MMP-13 were purchased from Amersham Pharmacia Biotech (Piscataway, N.J.). Measurement range was 6.25-100 ng/ml for MMP-1 and 0.094-3 ng/ml for MMP-13. Sensitivity for the assay was 1.7 ng/ml for MMP-1 and 0.7 ng/ml for MMP-13.
(§5) Protein levels of MMP-1 and MMP-13 were also tested by incubating isolated human chondrocytes for 48 hours in high density culture (10^6 cells/ml) with CB12-II, negative control peptide USP, or cytokine TNF-α, as discussed above. MMP-1 and MMP-13 secretion into medium from the cells was measured using ELISA (see FIGS. 9A and 9B).

MMP-1 = test: ELISA for MMP-1 in conditioned medium of human chondrocytes; conditions: 48 hours; CB12-II 50 μM, TNF-α 50 ng/ml
Method: as §4, §5

| Compound | inhibition of phosphorylation of ERK1/2 induced by CB12-II (ERK1/2) | effect of removal of hydroxylation at a single proline residue on activity of CB12-II (SP) [3] | other results |
| --- | --- | --- | --- |
| C=C1[C@@H](C)[C@H]2[C@H](Cc3ccccc3)NC(=O)[C@]23[C@H](OC(C)=O)/C=C/[C@@](C)(O)C(=O)[C@@H](C)C/C=C/[C@H]3[C@@H]1O [Cytochalasin D, reference compound] | inhibited |  |  |
| CO[C@H]1[C@@H](OC)C[C@H](C)[C@@H](OC)C2=CC(=O)C=C(NC(=O)/C(C)=C/C=C\[C@H](OC)[C@@H](OC(N)=O)/C(C)=C/[C@@H]1C)C2=O [Herbimycin A, reference compound] | inhibited |  |  |
| N#CC(=C(/N)Sc1ccccc1N)/C(C#N)=C(\N)Sc1ccccc1N [Peptide U0126, reference compound] | inhibited |  |  |
| C[S+]([O-])c1ccc(-c2nc(-c3ccncc3)c(-c3ccc(F)cc3)[nH]2)cc1 (stereo not shown) [SB203580, reference compound] | not |  |  |
| GEAGAPGVKGESGSPGQNGSPGPM (not fully specified) [CB12-IV, subpeptide of CB12; used as non-specific / negative control peptide (USP)] |  |  | proteoglycan breakdown [1]: no significant effect; induction of total collagenase cleavage of type II collagen by CB12 subpeptides [2]: less activity |
| GERGPP*GPQGARGFP*GTP*GLPGVK [SP21] |  | no effect on activity |  |
| GERGPP*GPQGARGFP*GTPGLP*GVK [SP18] |  | reduced potency |  |
| GERGPP*GPQGARGFPGTP*GLP*GVK [SP15] |  | reduced potency |  |
| GERGPPGPQGARGFP*GTP*GLP*GVK [SP6] |  | no effect on activity |  |
| GLPGVKGHRGYPGLDGAKGEAGAPG [CB12-III, subpeptide of the CB12 peptide of type II collagen] |  |  | proteoglycan breakdown [1]: no significant effect; induction of total collagenase cleavage of type II collagen by CB12 subpeptides [2]: less activity |
| GPRGPPGPPGKPGDDGEAGKPGKSGERGPPG [CB12-I, subpeptide of the CB12 peptide of type II collagen] |  |  | proteoglycan breakdown [1]: no significant effect; induction of total collagenase cleavage of type II collagen by CB12 subpeptides [2]: less activity |
| TNF-α |  |  | MMP-13 secretion into medium versus no peptide and negative control peptide (USP) (MMP-13): significantly higher; MMP-1 secretion into medium versus no peptide and negative control peptide (USP) (MMP-1): significantly higher |
